Experimental data reported in patent US20260325533A1, “CDK INHIBITOR COMPOUNDS” (ALEKSIA THERAPEUTICS, INC., priority 2023, published 2026).
Read-outs that look alike come from different tables or passages of the source. Blank lines part the entries; values can stand above or below the compound they belong to.

What was measured:
Type in all cases: biochemical
CDK2/CCNE1 = CDK2/CCNE1 (Homo sapiens, UniProt P24941); assay: CDK2 homogeneous time-resolved fluorescence (HTRF) kinase assay; conditions: CDK2/CCNE
Procedure, shortened: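 IC50 derived from 11-point, half-log dilutions (usually top 10 μM) of compound, 1% DMSO. Kinase (3 nM CDK2/CCNE1) was preincubated with compound 20 min, then phosphorylated 50 nM ULight-4E-BP1 peptide at 1 mM ATP for 60 min, 23 °C. Europium-antibody TR-FRET read after EDTA stop.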

CDK1/CCNB1 = CDK1/CCNB1 (Homo sapiens, UniProt P06493); assay: CDK1 homogeneous time-resolved fluorescence (HTRF) kinase assay; conditions: CDK1/CCNB
Procedure, shortened: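 HTRF assay with 0.5 nM CDK1/CCNB1, 1 mM ATP, 50 nM ULight-eIF4E-BP1 (Thr37/46) peptide; compound preincubated 20 min, reaction 60 min at 23 °C, EDTA stop, Eu-anti-phospho antibody detection. 11-point half-log titration from 10 μM, 1% DMSO; IC50 from 665 nm or 665/615 signal.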

CDK4/CCND3 = CDK4/CCND3 (Homo sapiens, UniProt P11802); assay: CDK4 homogeneous time-resolved fluorescence (HTRF) kinase assay; conditions: CDK4/CCND
Procedure, shortened: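 IC50s derive from Lance 665 nm or 665/615 nm signals in 11-point, half-log dose series (top 10 μM, 1% DMSO). The enzyme, 1.5 nM CDK4/CCND3, phosphorylates 50 nM ULight-4E-BP1 peptide with 1 mM ATP over 60 min at 23 °C.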

CDK6/CCND1 = CDK6/CCND1 (Homo sapiens, UniProt Q00534); assay: CDK6 homogeneous time-resolved fluorescence (HTRF) kinase assay; conditions: CDK6/CCND
Procedure, shortened: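 Assay conditions: HEPES buffer containing 10 mM MgCl2, 1 mM EGTA, 2 mM DTT, 0.01% Tween 20; 1 nM CDK6/CCND1, 50 nM peptide substrate, 1 mM ATP. Detection after 60 min reaction used 2 nM europium antibody with 340 nm excitation. Potency fitted from half-log series, 11 points.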

[1] = 25-250 nM, read-out: CDK2/CCNE IC50, 25-250 nM
[2] = >250 nM, read-out: CDK1/CCNB IC50 >250 nM
[3] = >250 nM, read-out: CDK4/CCND IC50, >250 nM
[4] = >250 nM, 1 mM ATP, read-out: CDK6/CCND IC50, >250 nM
[5] = <25 nM, read-out: CDK2/CCNE IC50, <25 nM
[6] = 25-250 nM, read-out: CDK4/CCND IC50, 25-250 nM
[7] = 25-250 nM, read-out: CDK1/CCNB IC50, 25-250 nM
[8] = 25-250 nM, 1 mM ATP, read-out: CDK6/CCND IC50, 25-250 nM
[9] = x = IC50 <25 nM, read-out: CDK2/CCNE IC50 (<25 nM)
[10] = x = IC50 25-250 nM, read-out: CDK1/CCNB IC50 (25-250 nM)
[11] = x = IC50 25-250 nM, read-out: CDK4/CCND IC50 (25-250 nM)
[12] = x = IC50 25-250 nM, read-out: CDK6/CCND IC50 (25-250 nM)
[13] = x = IC50 >250 nM, read-out: CDK4/CCND IC50 (>250 nM column)
[14] = x = IC50 >250 nM, read-out: CDK6/CCND IC50 (>250 nM column)
[15] = x = IC50 >250 nM, read-out: CDK1/CCNB IC50 (>250 nM column)
[16] = <25 nM, read-out: CDK2/CCNE IC50 <25 nM
[17] = 25-250 nM marked x, read-out: CDK1/CCNB IC50 25-250 nM
[18] = >250 nM marked x, read-out: CDK6/CCND IC50 >250 nM
[19] = >250 nM marked x, read-out: CDK1/CCNB IC50 >250 nM
[20] = >250 nM marked x, read-out: CDK4/CCND IC50 >250 nM

Chain of CDK1/CCNB1 (P06493 whole entry): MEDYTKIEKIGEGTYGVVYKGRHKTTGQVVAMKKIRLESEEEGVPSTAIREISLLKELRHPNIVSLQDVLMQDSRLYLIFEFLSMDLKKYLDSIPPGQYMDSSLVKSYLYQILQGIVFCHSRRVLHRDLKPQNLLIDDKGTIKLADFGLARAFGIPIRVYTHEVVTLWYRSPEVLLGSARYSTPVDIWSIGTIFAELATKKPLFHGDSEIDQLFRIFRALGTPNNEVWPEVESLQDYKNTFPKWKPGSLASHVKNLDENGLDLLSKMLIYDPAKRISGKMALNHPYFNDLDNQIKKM
Chain of CDK1/CCNB1 (P14635 whole entry partner): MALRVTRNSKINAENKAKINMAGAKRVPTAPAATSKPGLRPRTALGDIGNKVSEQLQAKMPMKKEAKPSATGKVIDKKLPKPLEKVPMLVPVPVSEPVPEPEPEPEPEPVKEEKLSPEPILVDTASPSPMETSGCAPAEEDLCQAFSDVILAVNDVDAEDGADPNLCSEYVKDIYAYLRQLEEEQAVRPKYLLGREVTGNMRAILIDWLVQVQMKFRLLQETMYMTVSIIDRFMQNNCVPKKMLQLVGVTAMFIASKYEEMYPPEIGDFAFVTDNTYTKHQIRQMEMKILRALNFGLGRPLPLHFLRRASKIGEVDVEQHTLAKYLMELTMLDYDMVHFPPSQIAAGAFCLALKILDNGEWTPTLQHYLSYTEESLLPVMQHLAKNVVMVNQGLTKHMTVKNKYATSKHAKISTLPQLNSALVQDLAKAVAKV
Chain of CDK6/CCND1 (Q00534 whole entry): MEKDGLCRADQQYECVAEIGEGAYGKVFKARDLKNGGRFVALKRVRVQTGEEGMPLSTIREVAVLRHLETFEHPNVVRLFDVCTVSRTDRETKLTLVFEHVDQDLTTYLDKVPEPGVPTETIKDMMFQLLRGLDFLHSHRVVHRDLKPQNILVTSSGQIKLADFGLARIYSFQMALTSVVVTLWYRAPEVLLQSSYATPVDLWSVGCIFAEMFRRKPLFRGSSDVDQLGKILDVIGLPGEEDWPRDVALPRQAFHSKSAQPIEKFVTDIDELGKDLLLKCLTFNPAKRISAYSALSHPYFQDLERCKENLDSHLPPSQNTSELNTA
Chain of CDK6/CCND1 (P24385 whole entry partner): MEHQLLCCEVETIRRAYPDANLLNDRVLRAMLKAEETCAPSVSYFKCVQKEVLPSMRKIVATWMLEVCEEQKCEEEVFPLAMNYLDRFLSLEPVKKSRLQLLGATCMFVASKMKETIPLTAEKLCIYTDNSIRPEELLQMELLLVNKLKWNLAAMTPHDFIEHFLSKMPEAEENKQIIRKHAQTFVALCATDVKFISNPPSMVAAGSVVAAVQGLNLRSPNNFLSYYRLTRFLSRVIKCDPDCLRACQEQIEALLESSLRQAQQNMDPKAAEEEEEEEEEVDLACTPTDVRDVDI
Chain of CDK4/CCND3 (P11802 whole entry): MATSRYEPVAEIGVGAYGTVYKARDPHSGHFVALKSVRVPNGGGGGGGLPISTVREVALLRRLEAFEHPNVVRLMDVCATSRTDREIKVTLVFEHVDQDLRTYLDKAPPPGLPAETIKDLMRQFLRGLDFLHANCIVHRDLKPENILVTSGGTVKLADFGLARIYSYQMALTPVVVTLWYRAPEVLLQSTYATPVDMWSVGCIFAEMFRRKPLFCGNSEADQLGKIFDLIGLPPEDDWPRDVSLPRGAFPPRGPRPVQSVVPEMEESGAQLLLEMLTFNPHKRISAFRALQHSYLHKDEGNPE
Chain of CDK4/CCND3 (P30281 whole entry partner): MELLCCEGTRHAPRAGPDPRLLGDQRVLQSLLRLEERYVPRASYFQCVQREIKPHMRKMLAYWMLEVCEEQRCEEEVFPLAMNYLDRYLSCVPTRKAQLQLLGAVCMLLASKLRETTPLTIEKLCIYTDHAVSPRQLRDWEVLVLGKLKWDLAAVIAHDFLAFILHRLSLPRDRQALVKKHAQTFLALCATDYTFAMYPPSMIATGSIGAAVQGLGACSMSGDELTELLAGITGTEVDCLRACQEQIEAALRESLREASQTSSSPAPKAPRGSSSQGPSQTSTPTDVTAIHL

IC50 (CDK2/CCNE1; [5]): < 25 nM | IC50 (CDK1/CCNB1; [2]): > 250 nM | IC50 (CDK4/CCND3; [6]): 25 to 250 nM | IC50 (CDK6/CCND1; [4]): > 250 nM
Compound: CS(=O)(=O)c1ccc(Nc2cc3c(C#CC45CCC(Cl)(CC4)CC5)nccc3cn2)cc1 (racemic) [Ex 944, 5-((4-chlorobicyclo[2.2.2]octan-1-yl)ethynyl)-N-(4-(methylsulfonyl)phenyl)-2,6-naphthyridin-3-amine]

IC50 (CDK2/CCNE1; [5]): < 25 nM | IC50 (CDK1/CCNB1; [7]): 25 to 250 nM | IC50 (CDK4/CCND3; [6]): 25 to 250 nM | IC50 (CDK6/CCND1; [8]): 25 to 250 nM
Compound: CS(=O)(=O)c1ccc(Nc2cc3c(C#CC45CC(C(N)=O)(C4)C5)nccc3cn2)cc1 (racemic) [Ex 945, 3-((7-((4-(methylsulfonyl)phenyl)amino)-2,6-naphthyridin-1-yl)ethynyl)bicyclo[1.1.1]pentane-1-carboxamide]

IC50 (CDK2/CCNE1; [9]): < 25 nM | IC50 (CDK1/CCNB1; [10]): 25 to 250 nM | IC50 (CDK4/CCND3; [11]): 25 to 250 nM | IC50 (CDK6/CCND1; [12]): 25 to 250 nM
Compound: CC1(O)C(=O)Nc2cc(C#Cc3nccc4cnc(Nc5ccc(S(C)(=O)=O)cc5)cc34)ccc21 (racemic) [Example 362, 3-hydroxy-3-methyl-6-((7-((4-(methylsulfonyl)phenyl)amino)-2,6-naphthyridin-1-yl)ethynyl)indolin-2-one]

IC50 (CDK2/CCNE1; [9]): < 25 nM | IC50 (CDK1/CCNB1; [10]): 25 to 250 nM | IC50 (CDK4/CCND3; [13]): > 250 nM | IC50 (CDK6/CCND1; [14]): > 250 nM
Compound: CCC1(C)C(=O)Nc2cc(C#Cc3nccc4cnc(Nc5ccc(S(C)(=O)=O)cc5)cc34)ccc21 (racemic) [Example 390, 3-ethyl-3-methyl-6-((7-((4-(methylsulfonyl)phenyl)amino)-2,6-naphthyridin-1-yl)ethynyl)indolin-2-one]

IC50 (CDK2/CCNE1; [9]): < 25 nM | IC50 (CDK1/CCNB1; [10]): 25 to 250 nM | IC50 (CDK4/CCND3; [11]): 25 to 250 nM | IC50 (CDK6/CCND1; [14]): > 250 nM
Compound: CC1(CO)C(=O)Nc2cc(C#Cc3nccc4cnc(Nc5ccc(S(C)(=O)=O)cc5)cc34)ccc21 (racemic) [Example 391, 3-(hydroxymethyl)-3-methyl-6-((7-((4-(methylsulfonyl)phenyl)amino)-2,6-naphthyridin-1-yl)ethynyl)indolin-2-one]

IC50 (CDK2/CCNE1; [9]): < 25 nM | IC50 (CDK1/CCNB1; [15]): > 250 nM | IC50 (CDK4/CCND3; [13]): > 250 nM | IC50 (CDK6/CCND1; [14]): > 250 nM
Compound: CC(C)S(=N)(=O)c1ccc(Nc2cc3c(C#Cc4ccc(=O)[nH]n4)nccc3cn2)cc1 (racemic) [Example 431, 6-((7-((4-(propan-2-ylsulfonimidoyl)phenyl)amino)-2,6-naphthyridin-1-yl)ethynyl)pyridazin-3(2H)-one]

IC50 (CDK2/CCNE1; [9]): < 25 nM | IC50 (CDK1/CCNB1; [15]): > 250 nM | IC50 (CDK4/CCND3; [13]): > 250 nM | IC50 (CDK6/CCND1; [14]): > 250 nM
Compound: Cc1c(-c2nccc3cnc(Nc4ccc(S(C)(=N)=O)cc4)cc23)ccc2nn(C)cc12 (racemic) [Example 626, (4-((5-(2,4-dimethyl-2H-indazol-5-yl)-2,6-naphthyridin-3-yl)amino)phenyl)(imino)(methyl)-λ^6-sulfanone]

Further lines, the compound ahead of its results:

Compound: Cc1c(-c2nccc3cnc(NC4CCN(C(=O)c5cccnc5)C4)cc23)ccc2c1cnn2CC(C)(C)O (racemic) [Ex 904, (3-((5-(1-(2-hydroxy-2-methylpropyl)-4-methyl-1H-indazol-5-yl)-2,6-naphthyridin-3-yl)amino)pyrrolidin-1-yl)(pyridin-3-yl)methanone]
IC50 (CDK2/CCNE1; [1]): 25 to 250 nM | IC50 (CDK1/CCNB1; [2]): > 250 nM | IC50 (CDK4/CCND3; [3]): > 250 nM | IC50 (CDK6/CCND1; [4]): > 250 nM

Compound: Cc1c(-c2nccc3cnc(NC4CCCN(S(C)(=O)=O)C4)cc23)ccc2c1cnn2CC(C)(C)O (racemic) [Ex 918, 2-methyl-1-(4-methyl-5-(7-((1-(methylsulfonyl)piperidin-3-yl)amino)-2,6-naphthyridin-1-yl)-1H-indazol-1-yl)propan-2-ol]
IC50 (CDK2/CCNE1; [1]): 25 to 250 nM | IC50 (CDK1/CCNB1; [2]): > 250 nM | IC50 (CDK4/CCND3; [3]): > 250 nM | IC50 (CDK6/CCND1; [4]): > 250 nM

Compound: CS(=O)(=O)c1ccc(Nc2cc3c(C#CC45CCC(C#N)(CC4)CC5)nccc3cn2)cc1 (racemic) [Ex 946, 4-((7-((4-(methylsulfonyl)phenyl)amino)-2,6-naphthyridin-1-yl)ethynyl)bicyclo[2.2.2]octane-1-carbonitrile]
IC50 (CDK2/CCNE1; [5]): < 25 nM | IC50 (CDK1/CCNB1; [7]): 25 to 250 nM | IC50 (CDK4/CCND3; [6]): 25 to 250 nM | IC50 (CDK6/CCND1; [8]): 25 to 250 nM

Compound: CC1(O)C=C(c2nccc3cnc(Nc4ccc(S(C)(=O)=O)cc4)cc23)CCC1 (racemic) [Example 671, 1-methyl-3-(7-((4-(methylsulfonyl)phenyl)amino)-2,6-naphthyridin-1-yl)cyclohex-2-en-1-ol]
IC50 (CDK2/CCNE1; [9]): < 25 nM | IC50 (CDK1/CCNB1; [15]): > 250 nM | IC50 (CDK4/CCND3; [13]): > 250 nM | IC50 (CDK6/CCND1; [12]): 25 to 250 nM

Compound: CS(=O)(=O)c1ccc(Nc2cc3c(N4CC[C@H](c5ccc(C#N)cc5)[C@H](O)C4)nccc3cn2)cc1 (relative stereo) [Example 606, 4-(3-hydroxy-1-(7-((4-(methylsulfonyl)phenyl)amino)-2,6-naphthyridin-1-yl)piperidin-4-yl)benzonitrile]
IC50 (CDK2/CCNE1; x = IC50 25-250 nM, read-out: CDK2/CCNE IC50 (25-250 nM)): 25 to 250 nM | IC50 (CDK1/CCNB1; [15]): > 250 nM | IC50 (CDK4/CCND3; [13]): > 250 nM | IC50 (CDK6/CCND1; [14]): > 250 nM

Compound: CS(=O)(=O)N1CCC(Nc2cc3c(N4CCC(C#N)C4)nccc3cn2)CC1 (single isomer, unassigned) [Ex 115, 1-(7-((1-(methylsulfonyl)piperidin-4-yl)amino)-2,6-naphthyridin-1-yl)pyrrolidine-3-carbonitrile]
IC50 (CDK2/CCNE1; [16]): < 25 nM | IC50 (CDK1/CCNB1; [17]): 25 to 250 nM | IC50 (CDK4/CCND3; <25 nM, read-out: CDK4/CCND IC50 <25 nM): < 25 nM | IC50 (CDK6/CCND1; <25 nM, read-out: CDK6/CCND IC50 <25 nM): < 25 nM

Compound: Cc1cc(S(=N)(=O)C2COC2)ccc1Nc1cc2c(C#Cc3ccc4c(c3)NC(=O)C43CC3)nccc2cn1 (single isomer, unassigned) [Ex 268, 6'-((7-((2-methyl-4-(oxetane-3-sulfonimidoyl)phenyl)amino)-2,6-naphthyridin-1-yl)ethynyl)spiro[cyclopropane-1,3'-indolin]-2'-one]
IC50 (CDK2/CCNE1; [16]): < 25 nM | IC50 (CDK1/CCNB1; [17]): 25 to 250 nM | IC50 (CDK4/CCND3; 25-250 nM marked x, read-out: CDK4/CCND IC50 25-250 nM): 25 to 250 nM | IC50 (CDK6/CCND1; [18]): > 250 nM

Compound: CCC1(CC)C(=O)Nc2cc(C#Cc3nccc4cnc(Nc5ccc(S(=N)(=O)C6CCC6)cc5OC)cc34)ccc21 (single isomer, unassigned) [Ex 269, 6-((7-((4-(cyclobutanesulfonimidoyl)-2-methoxyphenyl)amino)-2,6-naphthyridin-1-yl)ethynyl)-3,3-diethylindolin-2-one]
IC50 (CDK2/CCNE1; [16]): < 25 nM | IC50 (CDK1/CCNB1; [19]): > 250 nM | IC50 (CDK4/CCND3; [20]): > 250 nM | IC50 (CDK6/CCND1; [18]): > 250 nM

Compound: CCC1(CC)C(=O)Nc2cc(C#Cc3nccc4cnc(Nc5ccc(S(=N)(=O)C6COC6)cc5F)cc34)ccc21 (single isomer, unassigned) [Ex 273, 3,3-diethyl-6-((7-((2-fluoro-4-(oxetane-3-sulfonimidoyl)phenyl)amino)-2,6-naphthyridin-1-yl)ethynyl)indolin-2-one]
IC50 (CDK2/CCNE1; [16]): < 25 nM | IC50 (CDK1/CCNB1; [19]): > 250 nM | IC50 (CDK4/CCND3; [20]): > 250 nM | IC50 (CDK6/CCND1; [18]): > 250 nM

Compound: COc1cc(S(=N)(=O)C2CC2)ccc1Nc1cc2c(C#Cc3ccc4c(c3)NC(=O)C43CC3)nccc2cn1 (single isomer, unassigned) [Ex 278, 6'-((7-((4-(cyclopropanesulfonimidoyl)-2-methoxyphenyl)amino)-2,6-naphthyridin-1-yl)ethynyl)spiro[cyclopropane-1,3'-indolin]-2'-one]
IC50 (CDK2/CCNE1; [16]): < 25 nM | IC50 (CDK1/CCNB1; [19]): > 250 nM | IC50 (CDK4/CCND3; [20]): > 250 nM | IC50 (CDK6/CCND1; [18]): > 250 nM
